From patent publication US20150309047A1, “CIRCULATING PROTEOLYTIC BIOMARKERS OF CELL DEATH AND METHODS FOR THE USE THEREOF” (The Regents of the University of California, priority 2014, published 2015)
Residues, ends and D or L forms follow the SMILES beside them. *: point of attachment. Cbz = O=C(OCc1ccccc1)*; CH2F = FC*

How the values were obtained:
Assay type in all cases: cell-based, human
MM1.S = test: N-terminal labeling and MS of proteolytic fragments released into media from drug-treated cultured cells; details: MM1.S treated with bortezomib for at least 21 h
Experimental: (§1) MM1.S and SU-DHL-8 lines were obtained from ATCC; MOLM-13 from DMSZ. Cell lines were grown in RPMI-1640 media without fetal bovine serum for 24 h prior to drug treatment at indicated doses. After treatment, cells and debris were separated from media by low speed (800×g, 5 min), followed by high speed (24,000×g, 1 h) centrifugation. Total protein in media was precipitated with trichloroacetic acid, resuspended in 8M guanidine HCl, then subjected to N-terminal labeling as described (Wiita A P, et al. (2013) Global cellular response to chemotherapy-induced apoptosis. Elife 2:e01236).
(§2) Three cell lines treated with different drugs were evaluated: i) MM1.S, derived from multiple myeloma and treated with the proteasome inhibitor bortezomib, ii) MOLM-13, derived from acute myeloid leukemia and treated with the nucleoside analog cytarabine, and iii) SU-DHL-8, derived from diffuse large B-cell lymphoma and treated with the DNA-damaging agent doxorubicin. All of these conditions reflect the diagnoses of patients in the discovery cohort combined with clinically used chemotherapeutics. Under each condition the cells were either treated with drug or mock-treated for at least 21 h. […] After removing whole cells, proteins in the media were precipitated with trichloroacetic acid and then subjected to N-terminal labeling by subtiligase. FBS-free media was used in these experiments to avoid contamination from normal bovine plasma proteins.

Jurkat cells [1] = test: Subtiligase N-terminal labeling and LC/MS/MS degradomic analysis of etoposide-treated apoptotic Jurkat cells; details: Jurkat cells treated with etoposide
Experimental: Jurkat clone E6-1 (ATCC) cells were grown in RPMI-1640 supplemented with 10% fetal bovine serum, sodium pyruvate, and antibiotics. Normal cells were harvested for experiments at a density of 1×10^6 cells/ml. For apoptotic samples, cells at a density of 1×10^6 cells/ml were treated with etoposide (50 μM) for 12 hours prior to harvesting. Harvested cells (0.1 to 1 billion) were pelleted at 2,000×g and 25° C. for 5 minutes, washed twice with phosphate buffered saline, and lysed at a typical concentration of 2×10^8 cells/ml in 1.0% Triton X-100, 100 mM BICINE pH 8.0, 100 μM Z-VAD-FMK, 100 μM E-64, 1 mM PMSF, 1 mM AEBSF, and 5 mM EDTA. Cell lysates were incubated at room temperature for 1 hour to allow complete inhibition of endogenous protease and esterase activity, and centrifuged at 21,000×g and 4° C. for 15 minutes to pellet insoluble material. Clarified supernatant was immediately used in ligation reactions at a protein concentration of approximately 20 mg/ml, as determined by Bradford assay (Bio-Rad).
Subtiligase (1 μM), biotinylated peptide ester (1 mM), and DTT (2 mM) were added to either control or apoptotic cell lysate. Ligation reactions were typically left to proceed at room temperature for 60 minutes. […]

Jurkat cells [2] = test: Immunoblotting of caspase substrate proteolysis during apoptosis in Jurkat cells
Experimental: Jurkat cells at a density of 1×10^6 cells/ml were treated with etoposide (50 μM) for 0, 2, 4, 8, 12, and 24 hours prior to harvesting. Harvested cells were pelleted at 2,000×g and 25° C. for 5 minutes, washed twice with phosphate buffered saline, and lysed at a concentration of 2×10^7 cells/ml in 1.0% SDS, phosphate buffered saline, 100 μM Z-VAD-FMK, 100 μM E-64, 1 mM PMSF, 1 mM AEBSF, 5 mM EDTA, and 10 mM sodium butyrate. Whole cell lysates were sonicated to shear genomic DNA, normalized to a protein concentration of approximately 2 mg/ml, as determined by BCA assay (Pierce). Cell lysates for each apoptotic timepoint were then analyzed by SDS-PAGE and Western blot. Mouse monoclonal anti-caspase-3 (#9668) and rabbit polyclonal anti-HDAC3 (#2632) antibodies were purchased from Cell Signaling Technology. Mouse monoclonal anti-DFF45 (#611036) antibody was purchased from BD Transduction Laboratories. Goat polyclonal anti-N-Cor (#sc-1611) and rabbit polyclonal anti-HDAC7 (#sc-11412) antibodies were purchased from Santa Cruz Biotechnology. Rabbit polyclonal anti-TBLR1 (#A300-408A), rabbit polyclonal anti-SHARP (#A301-119A), and rabbit polyclonal anti-RBBP7 (#A300-959A) antibodies were purchased from Bethyl Laboratories. Rabbit polyclonal anti-SMRTe (#06-891) antibody was purchased from Millipore. Western blots were imaged using SuperSignal West Femto Substrate (Pierce) with a FluorChem SP imager (Alpha Innotech). DNA fragmentation of whole cell DNA was analyzed by agarose gel with the Apoptotic DNA Ladder Kit (Roche).

MOLM-13 = test: N-terminal labeling and MS of proteolytic fragments released into media from drug-treated cultured cells; details: MOLM-13 treated with cytarabine for at least 21 h
Experimental: as §1, §2

SU-DHL-8 = test: as above; details: SU-DHL-8 treated with doxorubicin for at least 21 h
Experimental: as §1, §2

[3] = Jurkat cells, 50 μM etoposide, immunoblot

CC(C)C[C@H](NC(=O)[C@H](Cc1ccccc1)NC(=O)c1cnccn1)B(O)O [bortezomib]
apoptosis of treated cells (MM1.S): at least 50%

COc1cc([C@@H]2c3cc4c(cc3[C@@H](O[C@@H]3O[C@@H]5CO[C@@H](C)O[C@H]5[C@H](O)[C@H]3O)[C@H]3COC(=O)[C@H]23)OCO4)cc(OC)c1O [etoposide]
N-termini identified in apoptotic cells derived from P1 aspartate cleavages (Jurkat cells [1]; large-scale (2D LC/MS/MS) experiments): 43%
N-termini identified in apoptotic cells derived from P1 aspartate cleavages (Jurkat cells [1]; small-scale (1D LC/MS/MS) experiments): 43%
proteolysis of CM, Ku80, LCOR, and RBBP7 (time courses) (Jurkat cells [2]; [3]): partial cleavage
proteolysis of HDAC6, HDAC7, N-CoR, RCOR2, SHARP, TBLR1, UBPS, and UBP36 (time courses) (Jurkat cells [2]; [3]): full cleavage

COC(=O)C[C@H](NC(=O)[C@H](C)NC(=O)[C@@H](NC(=O)OCc1ccccc1)C(C)C)C(=O)CF [Z-VAD(OMe)-fmk] (Cbz-Val-Ala-Asp(OMe)-CH2F)
cleavage of representative substrates HDAC7, Ku80, RCOR2, TBLR1, and UBP36 (Jurkat cells [2]; etoposide-treated Jurkat cells with caspase inhibitor): blocked

Nc1ccn([C@@H]2O[C@H](CO)[C@@H](O)[C@@H]2O)c(=O)n1 [cytarabine]
apoptosis of treated cells (MOLM-13): at least 50%

COc1cccc2c1C(=O)c1c(O)c3c(c(O)c1C2=O)C[C@@](O)(C(=O)CO)C[C@@H]3O[C@H]1C[C@H](N)[C@H](O)[C@H](C)O1 [doxorubicin]
apoptosis of treated cells (SU-DHL-8): at least 50%
